Assay results taken from patent US10799522B2, “Compositions and methods relating to galectin detection” (Wayne State University, priority 2015, dated 2020).

Experiment: radiation dosimetry estimates for human patients
Conditions: adult male

## OCC1OC(SC2OC(CO)C(O)C(n3cc(-c4cccc([18F])c4)nn3)C2O)C(O)C(n2cc(-c3cccc(F)c3)nn2)C1O [[^18F]FPTDG, 3-(3-[^18F]fluorophenyltriazolyl)-3-deoxy-3′-(3-fluorophenyltriazolyl)-3′-deoxy-1-thio-β-D-digalactopyranoside]
  Effective Dose: Effective Dose 6.74 mSv per 370 MBq dose or 10 mCi
  Effective Dose Equivalent: Effective Dose Equivalent 6.12 mSv per 370 MBq dose or 10 mCi
Total Body
  Estimated organ dose, Alpha: 0 mSv per 370 MBq dose or 10 mCi
  Estimated organ dose, Beta: 1.79 mSv per 370 MBq dose or 10 mCi
  Estimated organ dose, ED Cont.: 0.00 mSv per 370 MBq dose or 10 mCi
  Estimated organ dose, EDE Cont.: 0.00 mSv per 370 MBq dose or 10 mCi
  Estimated organ dose, Photon: 2.67 mSv per 370 MBq dose or 10 mCi
  Estimated organ dose, Total: 4.46 mSv per 370 MBq dose or 10 mCi
Target organ Adrenals
  Estimated organ dose, Alpha: 0 mSv per 370 MBq dose or 10 mCi
  Estimated organ dose, Beta: 1.70 mSv per 370 MBq dose or 10 mCi
  Estimated organ dose, ED Cont.: 0.03 mSv per 370 MBq dose or 10 mCi
  Estimated organ dose, EDE Cont.: 0.00 mSv per 370 MBq dose or 10 mCi
  Estimated organ dose, Photon: 3.33 mSv per 370 MBq dose or 10 mCi
  Estimated organ dose, Total: 5.03 mSv per 370 MBq dose or 10 mCi
Target organ Brain
  Estimated organ dose, Alpha: 0 mSv per 370 MBq dose or 10 mCi
  Estimated organ dose, Beta: 1.70 mSv per 370 MBq dose or 10 mCi
  Estimated organ dose, ED Cont.: 0.02 mSv per 370 MBq dose or 10 mCi
  Estimated organ dose, EDE Cont.: 0.00 mSv per 370 MBq dose or 10 mCi
  Estimated organ dose, Photon: 2.22 mSv per 370 MBq dose or 10 mCi
  Estimated organ dose, Total: 3.92 mSv per 370 MBq dose or 10 mCi
Target organ Breasts
  Estimated organ dose, Alpha: 0 mSv per 370 MBq dose or 10 mCi
  Estimated organ dose, Beta: 1.70 mSv per 370 MBq dose or 10 mCi
  Estimated organ dose, ED Cont.: 0.18 mSv per 370 MBq dose or 10 mCi
  Estimated organ dose, EDE Cont.: 0.54 mSv per 370 MBq dose or 10 mCi
  Estimated organ dose, Photon: 1.87 mSv per 370 MBq dose or 10 mCi
  Estimated organ dose, Total: 3.57 mSv per 370 MBq dose or 10 mCi
Target organ Gallbladder Wall
  Estimated organ dose, Alpha: 0 mSv per 370 MBq dose or 10 mCi
  Estimated organ dose, Beta: 1.70 mSv per 370 MBq dose or 10 mCi
  Estimated organ dose, ED Cont.: 0.00 mSv per 370 MBq dose or 10 mCi
  Estimated organ dose, EDE Cont.: 0.00 mSv per 370 MBq dose or 10 mCi
  Estimated organ dose, Photon: 3.7 mSv per 370 MBq dose or 10 mCi
  Estimated organ dose, Total: 5.40 mSv per 370 MBq dose or 10 mCi
Target organ Heart Wall
  Estimated organ dose, Alpha: 0 mSv per 370 MBq dose or 10 mCi
  Estimated organ dose, Beta: 1.72 mSv per 370 MBq dose or 10 mCi
  Estimated organ dose, ED Cont.: 0.00 mSv per 370 MBq dose or 10 mCi
  Estimated organ dose, EDE Cont.: 0.00 mSv per 370 MBq dose or 10 mCi
  Estimated organ dose, Photon: 2.76 mSv per 370 MBq dose or 10 mCi
  Estimated organ dose, Total: 4.48 mSv per 370 MBq dose or 10 mCi
Target organ Kidneys
  Estimated organ dose, Alpha: 0 mSv per 370 MBq dose or 10 mCi
  Estimated organ dose, Beta: 1.70 mSv per 370 MBq dose or 10 mCi
  Estimated organ dose, ED Cont.: 0.02 mSv per 370 MBq dose or 10 mCi
  Estimated organ dose, EDE Cont.: 0.00 mSv per 370 MBq dose or 10 mCi
  Estimated organ dose, Photon: 3.24 mSv per 370 MBq dose or 10 mCi
  Estimated organ dose, Total: 4.94 mSv per 370 MBq dose or 10 mCi
Target organ LLI Wall
  Estimated organ dose, Alpha: 0 mSv per 370 MBq dose or 10 mCi
  Estimated organ dose, Beta: 9.25 mSv per 370 MBq dose or 10 mCi
  Estimated organ dose, ED Cont.: 1.72 mSv per 370 MBq dose or 10 mCi
  Estimated organ dose, EDE Cont.: 0.86 mSv per 370 MBq dose or 10 mCi
  Estimated organ dose, Photon: 5.06 mSv per 370 MBq dose or 10 mCi
  Estimated organ dose, Total: 14.30 mSv per 370 MBq dose or 10 mCi
Target organ Liver
  Estimated organ dose, Alpha: 0 mSv per 370 MBq dose or 10 mCi
  Estimated organ dose, Beta: 1.30 mSv per 370 MBq dose or 10 mCi
  Estimated organ dose, ED Cont.: 0.20 mSv per 370 MBq dose or 10 mCi
  Estimated organ dose, EDE Cont.: 0.00 mSv per 370 MBq dose or 10 mCi
  Estimated organ dose, Photon: 2.79 mSv per 370 MBq dose or 10 mCi
  Estimated organ dose, Total: 4.08 mSv per 370 MBq dose or 10 mCi
Target organ Lungs
  Estimated organ dose, Alpha: 0 mSv per 370 MBq dose or 10 mCi
  Estimated organ dose, Beta: 0.03 mSv per 370 MBq dose or 10 mCi
  Estimated organ dose, ED Cont.: 0.28 mSv per 370 MBq dose or 10 mCi
  Estimated organ dose, EDE Cont.: 0.28 mSv per 370 MBq dose or 10 mCi
  Estimated organ dose, Photon: 2.26 mSv per 370 MBq dose or 10 mCi
  Estimated organ dose, Total: 2.29 mSv per 370 MBq dose or 10 mCi
Target organ Muscle
  Estimated organ dose, Alpha: 0 mSv per 370 MBq dose or 10 mCi
  Estimated organ dose, Beta: 1.70 mSv per 370 MBq dose or 10 mCi
  Estimated organ dose, ED Cont.: 0.02 mSv per 370 MBq dose or 10 mCi
  Estimated organ dose, EDE Cont.: 0.00 mSv per 370 MBq dose or 10 mCi
  Estimated organ dose, Photon: 2.68 mSv per 370 MBq dose or 10 mCi
  Estimated organ dose, Total: 4.38 mSv per 370 MBq dose or 10 mCi
Target organ Osteogenic Cells
  Estimated organ dose, Alpha: 0 mSv per 370 MBq dose or 10 mCi
  Estimated organ dose, Beta: 3.64 mSv per 370 MBq dose or 10 mCi
  Estimated organ dose, ED Cont.: 0.07 mSv per 370 MBq dose or 10 mCi
  Estimated organ dose, EDE Cont.: 0.21 mSv per 370 MBq dose or 10 mCi
  Estimated organ dose, Photon: 3.17 mSv per 370 MBq dose or 10 mCi
  Estimated organ dose, Total: 6.82 mSv per 370 MBq dose or 10 mCi
Target organ Ovaries
  Estimated organ dose, Alpha: 0 mSv per 370 MBq dose or 10 mCi
  Estimated organ dose, Beta: 1.70 mSv per 370 MBq dose or 10 mCi
